Where “and” joins values, the source holds several entries; their conditions need not be identical. Equal values may be shown once. Toxic doses and inconclusive results are not listed.

The values below come from PubChem BioAssay AID328 (DTP/NCI, 2004).

The assay deals with BDF1 mice, P388 leukemia ip, median survival T/C. Put plainly: NCI In Vivo Anticancer Drug Screen. Data for tumor model P388 Leukemia (intraperitoneal) in B6D2F1 (BDF1) mice. Conditions: endpoint: median survival time, higher = longer survival. The method in brief: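 Steps: implant the tumour, treat one group with compound and another with vehicle, record survival, then divide treated by control.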

The mark [1] stands for this setting: dose: 6.25 mg/kg/injection, schedule: Q01DX009 (ip), vehicle: saline.
Where [2] appears, read: dose: 12.5 mg/kg/injection, schedule: Q01DX009 (ip), vehicle: saline.
[3] abbreviates: dose: 25.0 mg/kg/injection, schedule: Q01DX009 (ip), vehicle: saline.
The mark [4] stands for this setting: dose: 25.0 mg/kg/injection, schedule: Q04DX003 (ip), vehicle: saline.
[5] abbreviates: dose: 50.0 mg/kg/injection, schedule: Q01DX009 (ip), vehicle: saline.
The mark [6] stands for this setting: dose: 50.0 mg/kg/injection, schedule: Q04DX003 (ip), vehicle: saline.
Where [7] appears, read: dose: 100.0 mg/kg/injection, schedule: Q01DX009 (ip), vehicle: saline.
Setting [8] is: dose: 100.0 mg/kg/injection, schedule: Q04DX003 (ip), vehicle: Klucel (hydroxypropylcellulose) (HPC).
Setting [9] is: dose: 100.0 mg/kg/injection, schedule: Q04DX003 (ip), vehicle: saline.
[10] abbreviates: dose: 200.0 mg/kg/injection, schedule: Q01DX009 (ip), vehicle: saline.
Where [11] appears, read: dose: 200.0 mg/kg/injection, schedule: Q04DX003 (ip), vehicle: Klucel (hydroxypropylcellulose) (HPC).
[12] abbreviates: dose: 200.0 mg/kg/injection, schedule: Q04DX003 (ip), vehicle: saline.
Setting [13] is: dose: 400.0 mg/kg/injection, schedule: Q01DX009 (ip), vehicle: saline.
Setting [14] is: dose: 400.0 mg/kg/injection, schedule: Q04DX003 (ip), vehicle: Klucel (hydroxypropylcellulose) (HPC).
Where [15] appears, read: dose: 20.0 mg/kg/injection, schedule: Q01DX010 (ip), vehicle: saline.
Where [16] appears, read: dose: 40.0 mg/kg/injection, schedule: Q01DX010 (ip), vehicle: saline.
Setting [17] is: dose: 50.0 mg/kg/injection, schedule: Q04DX003 (ip), vehicle: saline with Tween-80.
Where [18] appears, read: dose: 100.0 mg/kg/injection, schedule: Q04DX003 (ip), vehicle: saline with Tween-80.
Setting [19] is: dose: 200.0 mg/kg/injection, schedule: Q04DX003 (ip), vehicle: saline with Tween-80.
[20] abbreviates: dose: 100.0 mg/kg/injection, schedule: Q01DX009 (ip), vehicle: saline with Tween-80.
Where [21] appears, read: dose: 200.0 mg/kg/injection, schedule: Q01DX009 (ip), vehicle: saline with Tween-80.
Where [22] appears, read: dose: 100.0 mg/kg/injection, schedule: Q01DX001 (ip), vehicle: saline with Tween-80.
Setting [23] is: dose: 200.0 mg/kg/injection, schedule: Q01DX001 (ip), vehicle: saline with Tween-80.
The mark [24] stands for this setting: dose: 400.0 mg/kg/injection, schedule: Q01DX001 (ip), vehicle: saline with Tween-80.
Where [25] appears, read: dose: 50.0 mg/kg/injection, schedule: Q01DX009 (ip), vehicle: saline with Tween-80.
Where [26] appears, read: dose: 100.0 mg/kg/injection, schedule: Q01DX009 (ip), vehicle: Klucel (hydroxypropylcellulose) (HPC).
[27] abbreviates: dose: 200.0 mg/kg/injection, schedule: Q01DX009 (ip), vehicle: Klucel (hydroxypropylcellulose) (HPC).

Consider `Cc1nn(-c2ccccc2)c(N)c1C#N`, for which the T/C reads like this: under setting [1], 111 % of control; under setting [2], 94 % of control; (dose: 12.5 mg/kg/injection, schedule: Q04DX003 (ip), vehicle: saline) 98 % of control; under setting [3], 102 % of control; (dose: 25.0 mg/kg/injection, schedule: Q04DX003 (ip), vehicle: Klucel (hydroxypropylcellulose) (HPC)) 98 % of control; under setting [4], 163 % of control. The T/C is 111 % of control under setting [5]; 98 % of control (dose: 50.0 mg/kg/injection, schedule: Q04DX003 (ip), vehicle: Klucel (hydroxypropylcellulose) (HPC)); 86 % of control under setting [6]; 96 % of control under setting [7]; 121 % of control under setting [8]; 87 % of control under setting [9]. The T/C was 111 % of control under setting [10]; 113 % of control under setting [11]; 269 % of control under setting [12]; 105 % of control under setting [13]; 102 % of control under setting [14].
For `C=CCN(CC=C)P(=O)(N1CC1)N1CC1C` (configuration not stated), the T/C (dose: 0.25 mg/kg/injection, schedule: Q04DX003 (ip), vehicle: saline) was 120 % of control; the T/C (dose: 0.31 mg/kg/injection, schedule: Q01DX009 (ip), vehicle: saline) is 100 % of control; the T/C (dose: 0.5 mg/kg/injection, schedule: Q01DX009 (ip), vehicle: saline) is 156 % of control and 158 % of control; the T/C (dose: 0.83 mg/kg/injection, schedule: Q01DX009 (ip), vehicle: saline) is 150 % of control and 166 % of control and 173 % of control; the T/C (dose: 1.65 mg/kg/injection, schedule: Q04DX003 (ip), vehicle: saline) was 159 % of control; the T/C (dose: 1.8 mg/kg/injection, schedule: Q01DX009 (ip), vehicle: saline) was 91 % of control. In addition, the T/C runs as follows: (dose: 2.5 mg/kg/injection, schedule: Q04DX003 (ip), vehicle: saline) 163 % of control and 190 % of control; (dose: 3.75 mg/kg/injection, schedule: Q04DX003 (ip), vehicle: saline) 163 % of control; (dose: 5.0 mg/kg/injection, schedule: Q04DX003 (ip), vehicle: saline) 90 % of control.
Take `COC(=O)C1=COC(C)C2CN3CCc4c([nH]c5ccccc45)C3CC12` (configuration not stated): the T/C under setting [15] was 90 % of control; the T/C under setting [16] was 90 % of control; the T/C (dose: 160.0 mg/kg/injection, schedule: Q01DX010 (ip), vehicle: saline) was 90 % of control.
As to `CCOC(=O)Nc1cc(NC(C)CCCN(CC)CC)c2ncc(-c3ccccc3)nc2n1` (configuration not stated) (tested in a mixture with another compound), the T/C reads like this: under setting [3], 100 % of control; under setting [4], 104 % of control; under setting [5], 100 % of control; under setting [6], 100 % of control; under setting [7], 104 % of control; under setting [9], 104 % of control.
For the compound `N=C(N)c1ccc(C(=O)Oc2ccc([N+](=O)[O-])cc2)cc1`, the T/C under setting [17] is 109 % of control, the T/C under setting [18] was 109 % of control and the T/C under setting [19] is 109 % of control.
Take `O=C(c1ccccc1)C(Br)c1ccc([N+](=O)[O-])cc1` (configuration not stated): the T/C was 100 % of control under setting [8], 90 % of control under setting [11] and 100 % of control under setting [14].
For `CC(C(=O)O)c1ccc2c(c1)[nH]c1ccc(Cl)cc12` (configuration not stated), the T/C reads like this: under setting [20], 89 % of control; under setting [21], 91 % of control.
For `CCN(CC)c1c(C)nnc2c(-c3ccccc3)nnn12`, the T/C by setting is: under setting [17], 97 % of control; under setting [18], 100 % of control; under setting [19], 97 % of control.
As for `CC(C)(C)S(=O)(=O)CC(=O)Nc1ccccc1`, the T/C under setting [22] is 96 % of control, the T/C under setting [23] is 101 % of control and the T/C under setting [24] is 96 % of control.
On to `CCc1ccc(C(=O)NN)cc1`, for which the T/C runs as follows: under setting [1], 100 % of control; under setting [2], 97 % of control; under setting [3], 103 % of control; under setting [4], 94 % of control; under setting [5], 100 % of control; under setting [6], 92 % of control. Besides, the T/C under setting [7] is 124 % of control, the T/C under setting [9] was 94 % of control, the T/C under setting [10] was 90 % of control and the T/C under setting [12] was 94 % of control.
Turning to `CC(C)(O)c1cccc(C(=O)O)c1Sc1ccccc1`, the T/C reads like this: under setting [22], 100 % of control; under setting [23], 95 % of control; under setting [24], 101 % of control.
In the case of `NNc1nncn2c1cc1ccccc12`, the T/C under setting [25] was 86 % of control and the T/C under setting [20] was 107 % of control.
As for `O=C(CC(=O)NN=C1CCCCCC1)NN=C1CCCCCC1`, the T/C (dose: 37.5 mg/kg/injection, schedule: Q01DX009 (ip), vehicle: saline with Tween-80) was 98 % of control; the T/C (dose: 75.0 mg/kg/injection, schedule: Q01DX009 (ip), vehicle: saline with Tween-80) was 105 % of control; the T/C (dose: 150.0 mg/kg/injection, schedule: Q01DX009 (ip), vehicle: saline with Tween-80) was 99 % of control.
Consider `Nc1ccc(N=Nc2ccccc2)c(N)c1`, for which the T/C by setting is: (dose: 25.0 mg/kg/injection, schedule: Q01DX009 (ip), vehicle: saline with Tween-80) 88 % of control; under setting [25], 99 % of control; under setting [26], 91 % of control; under setting [20], 113 % of control; under setting [7], 120 % of control; under setting [9], 86 % of control. Also, the T/C reads like this: under setting [27], 100 % of control; under setting [21], 115 % of control; under setting [12], 100 % of control; under setting [13], 115 % of control; (dose: 400.0 mg/kg/injection, schedule: Q04DX003 (ip), vehicle: saline) 104 % of control.
In the case of `CN(C)c1ccc2c(Cl)cc(Cl)nc2c1`, the T/C by setting is: (dose: 12.5 mg/kg/injection, schedule: Q01DX009 (ip), vehicle: Klucel (hydroxypropylcellulose) (HPC)) 109 % of control; (dose: 25.0 mg/kg/injection, schedule: Q01DX009 (ip), vehicle: Klucel (hydroxypropylcellulose) (HPC)) 109 % of control; (dose: 50.0 mg/kg/injection, schedule: Q01DX009 (ip), vehicle: Klucel (hydroxypropylcellulose) (HPC)) 111 % of control; under setting [26], 117 % of control; under setting [27], 107 % of control.
On to `Cc1cc(N(CCCl)CCCl)ccc1N=Nc1ccccc1C(=O)O`, for which the T/C (dose: 5.0 mg/kg/injection, schedule: Q01DX010 (ip), vehicle: saline) is 150 % of control; the T/C (dose: 10.0 mg/kg/injection, schedule: Q01DX010 (ip), vehicle: saline) is 175 % of control; the T/C under setting [15] was 210 % of control; the T/C under setting [16] is 95 % of control.
For `CSCc1cccc(CO)c1`, the T/C is 110 % of control under setting [20]; 100 % of control under setting [21]; 105 % of control (dose: 400.0 mg/kg/injection, schedule: Q01DX009 (ip), vehicle: saline with Tween-80).
Take `CCOC1=CCCCC1`: the T/C is, setting by setting: under setting [7], 113 % of control; under setting [10], 115 % of control and 122 % of control; under setting [13], 118 % of control.
In the case of `C[C@H]1/C(=C/C(=O)OCCN(C)C)CC[C@H]2[C@H]1C(=O)C[C@H]1C(C)(C)[C@@H](O)CC[C@]21C`, the T/C was 100 % of control (dose: 4.0 mg/kg/injection, schedule: Q01DX010 (ip), vehicle: saline); 100 % of control (dose: 8.0 mg/kg/injection, schedule: Q01DX010 (ip), vehicle: saline); 104 % of control (dose: 16.0 mg/kg/injection, schedule: Q01DX010 (ip), vehicle: saline); 95 % of control and 104 % of control (dose: 32.0 mg/kg/injection, schedule: Q01DX010 (ip), vehicle: saline).
